pKi: −log10 of the molar value.
Tests used:
[1] = biological target: T1, recombinant human ALK5 (TGF-βR1) protein (Homo sapiens, UniProt P36897); assay: Biochemical ALK5 (TGF-βR1) assay to measure pKi (LANCE Ultra ULight kinase assay); conditions: apparent pKi, converted from pIC50 using the Cheng-Prusoff equation
T1 construct: purchased Life Technologies PR9075A
T1 sequence (P36897 34-503): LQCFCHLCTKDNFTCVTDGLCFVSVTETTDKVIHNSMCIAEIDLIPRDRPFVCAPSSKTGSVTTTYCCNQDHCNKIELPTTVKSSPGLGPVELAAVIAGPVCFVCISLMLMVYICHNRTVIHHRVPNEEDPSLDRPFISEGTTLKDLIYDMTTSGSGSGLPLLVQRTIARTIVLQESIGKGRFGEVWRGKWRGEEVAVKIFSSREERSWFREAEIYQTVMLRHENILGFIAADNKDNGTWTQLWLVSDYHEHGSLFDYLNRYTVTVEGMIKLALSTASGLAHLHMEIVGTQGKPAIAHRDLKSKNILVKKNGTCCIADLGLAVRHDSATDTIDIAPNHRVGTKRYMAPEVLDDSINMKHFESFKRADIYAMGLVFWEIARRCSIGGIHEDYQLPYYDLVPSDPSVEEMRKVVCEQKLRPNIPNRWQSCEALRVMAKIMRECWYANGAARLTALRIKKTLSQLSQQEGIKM
How it was run: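 TR-FRET kinase format: compound dose range 10 μM–25 pM equilibrated 60 min with human ALK5 and ULight-labelled topoisomerase 2α peptide in HEPES/MgCl2 buffer pH 7.5 with DTT. Reaction started with ATP (125 μM stock, 5× final), 60 min at 37° C, stopped with EDTA/Eu-anti-phospho antibody; pKi derived from pIC50 via Cheng-Prusoff.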

[2] = test system: TGF-β-stimulated SMAD3 phosphorylation in BEAS-2B cells; assay: Cellular ALK5 potency assay, inhibition of TGF-β stimulated pSMAD3 formation in BEAS-2B cells; assay type: cell-based; conditions: Homo sapiens, inhibition of TGF-β (10 ng/mL) stimulated pSMAD3 formation, 1 hour compound incubation, read-out: BEAS2B pIC50 (converted)
How it was run: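 Phospho-SMAD3 was quantified by AlphaLISA in lysates of human lung epithelial BEAS-2B cells. Compound was added 1 h (37 °C, HEPES/BSA-supplemented HBSS) before a 30 min challenge with 10 ng/mL TGF-β. Values are pIC50 relative to stimulated cells without compound.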

SMILES | pKi [1] | IC50 [2] [nM]
Fc1ccc(Cl)cc1-c1n[nH]cc1-c1ccc2ncc(NCC3CCCNC3)cc2n1 (stereo not drawn) [Compound 1-117, 6-[3-(5-chloro-2-fluoro-phenyl)-1H-pyrazol-4-yl]-N-(3-piperidylmethyl)-1,5-naphthyridin-3-amine] | 8.50 to 9.40 | 200 to 1260
Fc1ccc(Cl)cc1-c1n[nH]cc1-c1ccc2ncc(N3CC4CNC4C3)cc2n1 (stereo not drawn) [Compound 1-64, 2-[3-(5-chloro-2-fluoro-phenyl)-1H-pyrazol-4-yl]-7-(3,6-diazabicyclo[3.2.0]heptan-3-yl)-1,5-naphthyridine] | 9.50 to 10.40 | ≤ 20
Fc1cc(F)c(-c2n[nH]cc2-c2ccc3ncc(-c4ncn5c4NCC5)cc3n2)cc1Cl [Compound 6-55, 2-[3-(5-chloro-2,4-difluoro-phenyl)-1H-pyrazol-4-yl]-7-(2,3-dihydro-1H-imidazo[1,5-a]imidazol-7-yl)-1,5-naphthyridine] | 9.50 to 10.40 | 25.1 to 158
Fc1ccc(-c2n[nH]cc2-c2ccc3ncc(N4CCC(N5CCCC5)CC4)cc3n2)cc1F [Compound 8-11, 2-[3-(3,4-difluorophenyl)-1H-pyrazol-4-yl]-7-(4-pyrrolidin-1-yl-1-piperidyl)-1,5-naphthyridine] | 8.50 to 9.40 | 25.1 to 158
CC(C)(C)N1CCN(CCNc2cnc3ccc(-c4c[nH]nc4-c4cc(Cl)c(F)cc4F)nc3c2)CC1 [Compound 6-13, N-(2-(4-(tert-butyl)piperazin-1-yl)ethyl)-6-(3-(5-chloro-2,4-difluorophenyl)-1H-pyrazol-4-yl)-1,5-naphthyridin-3-amine] | 9.50 to 10.40 | 25.1 to 158
Fc1cc(F)c(-c2n[nH]cc2-c2ccc3ncc(-c4ncc5n4CCNC5)cc3n2)cc1Cl [Compound 6-51, 2-[3-(5-chloro-2,4-difluoro-phenyl)-1H-pyrazol-4-yl]-7-(5,6,7,8-tetrahydroimidazo[1,5-a]pyrazin-3-yl)-1,5-naphthyridine] | 8.50 to 9.40 | 25.1 to 158
CN1CCN(CC(C)(C)Nc2cnc3ccc(-c4c[nH]nc4-c4cc(Cl)ccc4F)nc3c2)CC1 [Compound 1-9, 6-[3-(5-chloro-2-fluoro-phenyl)-1H-pyrazol-4-yl]-N-[1,1-dimethyl-2-(4-methylpiperazin-1-yl)ethyl]-1,5-naphthyridin-3-amine] | 7.50 to 8.40 | 200 to 1260
COCc1cccc(-c2n[nH]cc2-c2ccc3ncc(N4CCNCC4)cc3n2)c1 [Compound 14-16, 2-[3-[3-(methoxymethyl)phenyl]-1H-pyrazol-4-yl]-7-piperazin-1-yl-1,5-naphthyridine] | 7.50 to 8.40 | 200 to 1260

The next lines start with results.

pKi [1] | SMILES | IC50 [2] [nM]
7.50 to 8.40 | CC(C)N1CCN(CCNc2cnc3ccc(-c4nc[nH]c4-c4ccc(F)c(F)c4)cc3c2)CC1 [Compound 23-4, 6-(5-(3,4-difluorophenyl)-1H-imidazol-4-yl)-N-(2-(4-isopropylpiperazin-1-yl)ethyl)quinolin-3-amine] | 25.1 to 158
9.50 to 10.40 | Fc1ccc(Cl)cc1-c1n[nH]cc1-c1ccc2ncc(-c3cn(Cc4cnc5c(c4)CNCC5)nn3)cc2n1 [Compound 1-112, 2-[3-(5-chloro-2-fluoro-phenyl)-1H-pyrazol-4-yl]-7-[1-(5,6,7,8-tetrahydro-1,6-naphthyridin-3-ylmethyl)triazol-4-yl]-1,5-naphthyridine] | 25.1 to 158
8.50 to 9.40 | Fc1ccc(Cl)cc1-c1nc2ccccn2c1-c1ccc2ncc(-c3cn[nH]c3)cc2n1 [Compound 3-10, 2-[2-(5-chloro-2-fluoro-phenyl)imidazo[1,2-a]pyridin-3-yl]-7-(1H-pyrazol-4-yl)-1,5-naphthyridine] | 1580 to 10000
≥ 10.50 | CNCCn1cc(-c2cnc3ccc(-c4nc[nH]c4-c4cc(Cl)ccc4F)cc3c2)cn1 [Compound 17-2, 2-[4-[6-[5-(5-chloro-2-fluoro-phenyl)-1H-imidazol-4-yl]-3-quinolyl]pyrazol-1-yl]-N-methyl-ethanamine] | 25.1 to 158

Source: US11730720B2, “ALK5 inhibitors” (THERAVANCE BIOPHARMA R&D IP, LLC, priority 2018, dated 2023)
